Test results reported in ChEMBL document CHEMBL5143690, “Identification of nitrofuranylchalcone tethered benzoxazole-2-amines as potent inhibitors of drug resistant Mycobacterium tuberculosis demonstrating bactericidal efficacy” (Bioorg Med Chem, 2022).
In brackets after ≈: the same amount, converted by molar mass.

Columns and labels:
Format in all cases: functional
[1] = test system: Mycobacterium tuberculosis; experiment: Antimycobacterial activity against ethambutol-resistant Mycobacterium tuberculosis H37Rv ATCC 35837 assessed as inhibition of bacterial growth incubated for 48 hrs by resazurin microtitre assay
[2] = test system: Mycobacterium tuberculosis; experiment: Antimycobacterial activity against rifampicin-resistant Mycobacterium tuberculosis H37Rv ATCC 35838 assessed as inhibition of bacterial growth incubated for 48 hrs by resazurin microtitre assay
[3] = test system: Mycobacterium tuberculosis; experiment: Antimycobacterial activity against isoniazid-resistant Mycobacterium tuberculosis H37Rv ATCC 35822 assessed as inhibition of bacterial growth incubated for 48 hrs by broth microdilution assay
[4] = test system: Mycobacterium tuberculosis; experiment: Antimycobacterial activity against Streptomycin-resistant Mycobacterium tuberculosis H37Rv ATCC 35820 assessed as inhibition of bacterial growth incubated for 48 hrs by resazurin microtitre assay

SMILES	MIC [1] [µg/mL]	MIC [2] [µg/mL]	MIC [3] [µg/mL]	MIC [4] [µg/mL]
O=C(/C=C/c1ccc([N+](=O)[O-])o1)c1ccc(Nc2nc3ccccc3o2)cc1	0.03 (≈ 0.0799 µM)	0.03 (≈ 0.0799 µM)	0.06 (≈ 0.16 µM)	0.12 (≈ 0.32 µM)
Cc1ccc2oc(Nc3ccc(C(=O)/C=C/c4ccc([N+](=O)[O-])o4)cc3)nc2c1	0.06 (≈ 0.154 µM)	0.03 (≈ 0.077 µM)	0.12 (≈ 0.308 µM)	0.06 (≈ 0.154 µM)
O=C(/C=C/c1ccc([N+](=O)[O-])o1)c1ccc(Nc2nc3cc(Cl)ccc3o2)cc1	0.03 (≈ 0.0732 µM)	0.03 (≈ 0.0732 µM)	0.06 (≈ 0.146 µM)	0.06 (≈ 0.146 µM)
O=C(/C=C/c1ccc([N+](=O)[O-])o1)c1ccc(Nc2nc3cc([N+](=O)[O-])ccc3o2)cc1	0.06 (≈ 0.143 µM)	0.03 (≈ 0.0714 µM)	0.25 (≈ 0.595 µM)	0.12 (≈ 0.285 µM)
O=C(/C=C/c1ccc([N+](=O)[O-])o1)c1cccc(Nc2nc3ccccc3o2)c1	0.06 (≈ 0.16 µM)	0.03 (≈ 0.0799 µM)	0.25 (≈ 0.666 µM)	0.12 (≈ 0.32 µM)
CC[C@@H](CO)NCCN[C@@H](CC)CO [ETHAMBUTOL]	32 (≈ 157 µM)	1 (≈ 4.89 µM)	1 (≈ 4.89 µM)	1 (≈ 4.89 µM)
NNC(=O)c1ccncc1 [ISONIAZID]	0.03 (≈ 0.219 µM)	0.03 (≈ 0.219 µM)	> 64	0.03 (≈ 0.219 µM)
CO[C@H]1/C=C/O[C@@]2(C)Oc3c(C)c(O)c4c(O)c(c(/C=N/N5CCN(C)CC5)c(O)c4c3C2=O)NC(=O)/C(C)=C\C=C\[C@H](C)[C@H](O)[C@@H](C)[C@@H](O)[C@@H](C)[C@H](OC(C)=O)[C@@H]1C [RIFAMPIN]	0.03 (≈ 0.0365 µM)	64 (≈ 77.8 µM)	0.03 (≈ 0.0365 µM)	0.03 (≈ 0.0365 µM)
CN[C@@H]1[C@H](O[C@H]2[C@H](O[C@H]3[C@H](O)[C@@H](O)[C@H](N=C(N)N)[C@@H](O)[C@@H]3N=C(N)N)O[C@@H](C)[C@]2(O)C=O)O[C@@H](CO)[C@H](O)[C@H]1O [STREPTOMYCIN]	1 (≈ 1.72 µM)	1 (≈ 1.72 µM)	1 (≈ 1.72 µM)	> 64
